Some test systems named below: NCI-H226; Malme-3M; K562; KM12; RXF 393; A498; TK-10; COLO 205; OVCAR-4; EKVX; CCRF-CEM; SF-295; NCI-H522; UACC-257; HCC 2998; OVCAR-3; MOLT-4; HL-60; HCT-116; MDA-MB-435.
What all share (experiment): NCI anticancer screen, dose series, 48 h

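Tested at 5 concentrations; 48 h exposure; 96-well plates; endpoints linearly interpolated, else capped at highest concentration. GI50 marks 50% less growth.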 Calls of active or inactive are those of the source. Rule as the data show it: active = GI50 up to about 1.1 µM and inactive = higher.

On to `CC(=O)OC1COC(N2C(=O)C(=O)c3ccccc32)C(OC(C)=O)C1OC(C)=O` (stereo not given), for which the GI50 in the test on NCI-H226, in the test with Malme-3M, in the test on K562, in the test with KM12, in the test with RXF 393 and with A498 was > 100 µM (inactive) in each case. Further, the GI50 in the test with TK-10, in the test on COLO 205, in the test with OVCAR-4, with EKVX, in the test on CCRF-CEM and with SF-295 was > 100 µM (inactive) each time. Besides, the GI50 in the test with NCI-H522, in the test on UACC-257, in the test with HCC 2998, in the test with OVCAR-3 and in the test on MOLT-4 was > 100 µM (inactive) each time.

Regarding `CC(=O)C1=C(C)NC2C=CC=CN12` (stereo not given), the GI50 with NCI-H226, with Malme-3M, in the test with K562, in the test on KM12, with RXF 393 and in the test with A498 was > 100 µM (inactive) each time. The GI50 in the test on HL-60, in the test on TK-10, with COLO 205, in the test with OVCAR-4, in the test with EKVX and in the test with CCRF-CEM was > 100 µM (inactive) each time. The GI50 in the test with SF-295, in the test on NCI-H522, in the test with UACC-257, in the test with HCT-116, in the test on HCC 2998 and with OVCAR-3 was > 100 µM (inactive) in each case. For the same molecule, in the test with MOLT-4, the GI50 is > 100 µM (inactive).

On to `COC(=O)C[S+]([O-])c1ccccc1` (stereo not given), for which the GI50 in the test on Malme-3M was > 100 µM (inactive); in the test on K562, 35.9 µM (inactive); with KM12, 28.3 µM (inactive); in the test with RXF 393, 16.4 µM (inactive); with A498 it was 49.8 µM (inactive); in the test on HL-60, 15.5 µM (inactive). The GI50 was 44 µM (inactive) in the test on TK-10; 34.3 µM (inactive) in the test with COLO 205; 41.2 µM (inactive) with OVCAR-4; 50.7 µM (inactive) in the test on EKVX; 7.67 µM (inactive) with CCRF-CEM; 36.6 µM (inactive) with SF-295. Further, the GI50 with NCI-H522 was 13.8 µM (inactive); in the test on UACC-257 it was 60.4 µM (inactive); in the test on HCT-116, 30.3 µM (inactive); in the test on HCC 2998, 25.3 µM (inactive); with OVCAR-3, 31.3 µM (inactive); in the test on MOLT-4 it was 10.8 µM (inactive).

With `CCc1cccc(C(C)C)c1C1C(=O)C(=O)N(c2nc3ccccc3s2)C(=O)C1=O`, the GI50 in the test with NCI-H226, in the test with Malme-3M, in the test on K562, in the test with KM12, with RXF 393 and in the test on A498 was > 100 µM (inactive) throughout. For the same molecule, the GI50 in the test with HL-60, with TK-10, with COLO 205, in the test on OVCAR-4, in the test with EKVX and in the test on CCRF-CEM was > 100 µM (inactive) throughout. Besides, the GI50 with SF-295, with UACC-257, with HCT-116, with HCC 2998, with OVCAR-3 and in the test on MOLT-4 was > 100 µM (inactive) throughout.

In the case of `O=C1C[C@H](c2ccc(O)c(O)c2)Oc2cc(O)cc(O)c21`, the GI50 in the test on NCI-H226 is > 100 µM (inactive); with Malme-3M it was 87.1 µM (inactive); in the test with K562, > 100 µM (inactive); in the test on KM12 it was 78.2 µM (inactive); in the test on RXF 393, > 100 µM (inactive); with A498, > 100 µM (inactive). The GI50 in the test with HL-60 was 30.6 µM (inactive); in the test with TK-10, 73.1 µM (inactive); with COLO 205, > 100 µM (inactive); in the test with OVCAR-4, > 100 µM (inactive); with EKVX, 83.8 µM (inactive); in the test with CCRF-CEM, 31.2 µM (inactive). Besides, the GI50 is > 100 µM (inactive) in the test on SF-295; 11.6 µM (inactive) in the test with NCI-H522; > 100 µM (inactive) with UACC-257; > 100 µM (inactive) in the test on HCT-116; > 100 µM (inactive) with HCC 2998; > 100 µM (inactive) with OVCAR-3. Moreover, in the test on MOLT-4, the GI50 was 74.5 µM (inactive).

Regarding `O=C1C=C(O)c2nc(O)ccc2C1=O`, the GI50 in the test on NCI-H226, in the test with Malme-3M, in the test on K562, with RXF 393, with A498 and in the test on HL-60 was > 100 µM (inactive) in each case. Further, the GI50 is > 100 µM (inactive) in the test with TK-10; > 100 µM (inactive) in the test on COLO 205; 26.2 µM (inactive) in the test on OVCAR-4; > 100 µM (inactive) with EKVX; > 100 µM (inactive) in the test on CCRF-CEM; > 100 µM (inactive) with SF-295. In addition, the GI50 in the test with NCI-H522, with UACC-257, in the test with HCT-116, with HCC 2998, in the test on OVCAR-3 and in the test with MOLT-4 was > 100 µM (inactive) each time.

Turning to `CN(C)c1nc(N(C)C)sc(=O)n1`, the GI50 with NCI-H226, in the test on K562, in the test with KM12, in the test on RXF 393, in the test on A498 and in the test on HL-60 was > 100 µM (inactive) in each case. Also, the GI50 in the test on TK-10, in the test on OVCAR-4, in the test with EKVX, with CCRF-CEM, in the test on SF-295 and in the test on NCI-H522 was > 100 µM (inactive) each time. Besides, the GI50 in the test on UACC-257, with HCC 2998 and in the test with MOLT-4 was > 100 µM (inactive) throughout.

Consider `C[N+](C)(C)CC1CCCCC1O` (stereo not given), for which the GI50 with NCI-H226, in the test on RXF 393, with A498, in the test on TK-10, in the test on COLO 205 and in the test with OVCAR-4 was > 100 µM (inactive) each time. Also, the GI50 is > 100 µM (inactive) in the test with CCRF-CEM; > 100 µM (inactive) in the test on SF-295; 63 µM (inactive) in the test with NCI-H522; > 100 µM (inactive) with UACC-257; > 100 µM (inactive) with HCT-116; > 100 µM (inactive) in the test on HCC 2998. Besides, the GI50 in the test on OVCAR-3 and with MOLT-4 was > 100 µM (inactive) throughout.

On to `COc1cc2c(cc1OC)C(C(CBr)CBr)N(C1CCCC1)CC2` (stereo not given), for which the GI50 was 82.6 µM (inactive) with NCI-H226; > 100 µM (inactive) in the test with Malme-3M; > 100 µM (inactive) in the test with K562; > 100 µM (inactive) in the test on KM12; > 100 µM (inactive) in the test on RXF 393; > 100 µM (inactive) with A498. The GI50 with HL-60, in the test with TK-10, with COLO 205, with OVCAR-4, in the test on EKVX and in the test on CCRF-CEM was > 100 µM (inactive) throughout. The GI50 in the test on SF-295, in the test with NCI-H522, in the test on UACC-257, in the test on HCC 2998, in the test on OVCAR-3 and in the test with MOLT-4 was > 100 µM (inactive) each time.

As for `N#CC(/C(CCCC(=O)Nc1cccc([N+](=O)[O-])c1)=N/NC(=O)c1cc2ccccc2cc1O)c1ccccc1` (stereo not given), the GI50 was > 100 µM (inactive) in the test with NCI-H226; 67.1 µM (inactive) with Malme-3M; 17.7 µM (inactive) in the test with K562; 62.2 µM (inactive) with KM12; 5.07 µM (inactive) in the test with RXF 393; 35.3 µM (inactive) in the test on A498. Moreover, the GI50 was 4.79 µM (inactive) in the test with HL-60; 31.1 µM (inactive) in the test on TK-10; 23.6 µM (inactive) in the test on COLO 205; 31.1 µM (inactive) in the test on OVCAR-4; 23.2 µM (inactive) with EKVX; 6.1 µM (inactive) in the test with CCRF-CEM. Moreover, the GI50 with SF-295 is 39.1 µM (inactive); with NCI-H522 it was 23.1 µM (inactive); with UACC-257 it was 24.4 µM (inactive); with HCT-116, 35.6 µM (inactive); with HCC 2998, 36.6 µM (inactive); with OVCAR-3 it was 25.8 µM (inactive). In the test with MOLT-4, the GI50 is 14.6 µM (inactive).

Consider `COc1cc(C2c3cc4c(cc3[C@@H](Nc3ccc(F)cc3)C3CO[C@@H](O)[C@H]23)OCO4)cc(OC)c1O` (stereo not given in full), for which the GI50 in the test with MDA-MB-435 was 12.3 µM (inactive); with K562, 4.37 µM (inactive); with KM12, 5.66 µM (inactive); with HL-60 it was 0.598 µM (active); in the test on TK-10, 12.3 µM (inactive); with COLO 205, 5.78 µM (inactive). For the same molecule, the GI50 with OVCAR-4 was 12.2 µM (inactive); in the test on EKVX, 14.4 µM (inactive); in the test on CCRF-CEM it was 0.925 µM (active); with SF-295 it was 1.24 µM (inactive); with NCI-H522, 3.16 µM (inactive); with UACC-257, 20.7 µM (inactive). The GI50 in the test with HCT-116 was 3.72 µM (inactive); in the test on HCC 2998 it was 11 µM (inactive); in the test with MOLT-4 it was 0.236 µM (active).

Source of the values: ChEMBL document CHEMBL1201862, “PubChem BioAssay data set” (2004).
